Read-outs that look alike come from different tables or passages of the source.
Columns and labels:
sphingolipid metabolism = test: Sphingolipid levels in rat kidney and liver after ip FB1 or HFB1; assay type: in vivo; conditions: 5 days; for levels of sphingoid bases and 1-phosphates (total sphingosine, total sphinganine) in tissues compared to vehicle-treated controls: ip
Text: (§1) The study protocol was approved by the Institutional Animal Care and Use Committee, Richard B. Russell Agricultural Research Center, Athens, GA. Male Sprague–Dawley rats (Harlan Industries, Indianapolis, IN, USA), 7 weeks of age at receipt, were individually housed in stainless steel, wire mesh cages in an environmentally controlled room having a 12-h light/dark cycle. Food (2019 Global Rodent Diet, Teklad, Madison, WI, USA) and fresh tap water were provided ad libitum. After a 1 week acclimation period, the animals were randomly assigned to five groups (n = 2/group) having mean weights of 215 to 216 g (weight range of all animals, 211 to 220 g). For five consecutive days, they were observed, weighed, and given an intraperitoneal injection (ip) of 0 (vehicle), 0.5, 1.0, or 2.0 mg/kg body weight FB1 (provided by R. Eppley, US FDA), 1.0 mg/kg body weight HFB1 (positive control) (Voss et al. [2009]), or vehicle (0.9 % physiological saline). These doses corresponded to 0.69, 1.38, and 2.77 μmol FB1/kg body weight and 2.47 μmol/kg body weight HFB1 per day. In order to compare the effects of FB1 and HFB1, dosages will be expressed as molar concentrations and, on this basis, the high dose of FB1 is roughly equivalent to that of the positive control dose of HFB1. Dosing solutions were sterile filtered and administered at a volume rate of 10 ml/kg body weight. The animals were fasted overnight prior to administration of the final dose. The rats were euthanized (CO2 inhalation and exsanguination) 60 to 90 min following the final dose administration and examined by necropsy. The kidney and liver specimens were fixed in 10 % neutral buffered formalin, processed, and microscopically evaluated without knowledge of the animal’s identity or treatment group. Three representative liver and kidney specimens (100 mg each) were also collected, immediately frozen, and stored (−80 °C) until processed, at which time the tissues were thawed and homogenized in distilled/deionized water (1 ml water/100 mg tissue). The homogenates were lyophilized before they were shipped by overnight courier for the analysis of fumonisin metabolites and sphingolipids.
(§2) Lyophilized liver and kidney tissues (100 mg wet weight equivalents) were processed for the quantification of FB1, HFB1, NAFB1, NAHFB1, and sphingolipids. Preparation of the tissue samples was performed according to a previously published method (Harrer et al. [2013]). For the quantification of FB1 and HFB1, a d6-labeled derivative of FB1 (FB1-d6) was used as the internal standard. Synthetic derivatives with a heptadecanoic fatty acid (C17:0) residue were used as internal standards for the quantification of N-acyl-fumonisins and ceramides (N-C17:0-FB1, N-C17:0-HFB1, and N-C17:0-ceramide). The sphingoid bases and their phosphate derivatives were quantified using synthetic derivatives with a C17-acyl-backbone: sphingosine (C17:1), sphingosine-1-phosphate (C17:1), sphinganine (C17:0), sphinganine-1-phosphate (C17:0) as internal standards. The standards were dissolved in methanol:chloroform (2:1, v/v) and then mixed with the tissue samples. The samples spiked with internal standard were kept at room temperature for 30 min before being processed further. The internal standard-spiked samples were first extracted with ethyl acetate, isopropanol, and water (60:30:10, v/v/v) and a second time using methanol, chloroform, and water (60:30:10, v/v/v). The extracts were combined, the solvents removed by evaporation, and the dried samples stored at−80 °C till analyzed.

rat liver and kidney = test: Histological examination of rat liver and kidney; assay type: in vivo; conditions: ip, 5 days; FB1 0.5, 1.0, 2.0 mg/kg or HFB1 1.0 mg/kg body weight per day; n = 2/group
Text: The study protocol was approved by the Institutional Animal Care and Use Committee, Richard B. Russell Agricultural Research Center, Athens, GA. Male Sprague–Dawley rats (Harlan Industries, Indianapolis, IN, USA), 7 weeks of age at receipt, were individually housed in stainless steel, wire mesh cages in an environmentally controlled room having a 12-h light/dark cycle. Food (2019 Global Rodent Diet, Teklad, Madison, WI, USA) and fresh tap water were provided ad libitum. After a 1 week acclimation period, the animals were randomly assigned to five groups (n = 2/group) having mean weights of 215 to 216 g (weight range of all animals, 211 to 220 g). For five consecutive days, they were observed, weighed, and given an intraperitoneal injection (ip) of 0 (vehicle), 0.5, 1.0, or 2.0 mg/kg body weight FB1 (provided by R. Eppley, US FDA), 1.0 mg/kg body weight HFB1 (positive control) (Voss et al. [2009]), or vehicle (0.9 % physiological saline). […] In order to compare the effects of FB1 and HFB1, dosages will be expressed as molar concentrations and, on this basis, the high dose of FB1 is roughly equivalent to that of the positive control dose of HFB1. […] The kidney and liver specimens were fixed in 10 % neutral buffered formalin, processed, and microscopically evaluated without knowledge of the animal’s identity or treatment group. […]

[1] = In vivo formation of NAFB1 and NAHFB1 in rat kidney and liver (HPLC-ESI-MS/MS); conditions: kidney; FB1 2.77 or HFB1 2.47 μmol/kg body weight per day ip, 5 days
[2] = Tissue FB1 and HFB1 concentrations in rat kidney and liver (HPLC-ESI-MS/MS); assay type: in vivo; conditions: HFB1 2.47 μmol/kg body weight per day ip, 5 days
Text: as §1, §2
For the analysis, the samples were reconstituted in a mixture of water, methanol, and tetrahydrofurane (60:24:16, v/v/v). The NAFB1 and NAHFB1 derivatives having the following fatty acyl chain lengths were quantified by HPLC-MS/MS: C16:0, C18:0, C20:0, C22:0, C24:0, C26:0. Furthermore, we also quantified the unsaturated derivatives C24:1 and C26:1. The results are given as the sum of all N-acyl derivatives of FB1 or HFB1. […]

[3] = design: method as in Bulder et al. 2012; conditions: ref Bulder et al. 2012; cited from earlier work
[4] = design: method as in Martinez-Larranaga et al. 1999; conditions: single dose, ref Martinez-Larranaga et al. 1999, cited from earlier work
[5] = rats fed with fumonisin-contaminated diet; ref Riley and Voss 2006; cited from earlier work
[6] = kidney, dose High: 2.77 μmol FB1/kg or 2.47 μmol HFB1/kg body weight per day ip
[7] = liver, dose High: 2.77 μmol FB1/kg or 2.47 μmol HFB1/kg body weight per day ip
[8] = kidney, dose Low: 0.69 μmol FB1/kg body weight per day ip
[9] = kidney, dose Mid: 1.38 μmol FB1/kg body weight per day ip
[10] = liver, dose Low: 0.69 μmol FB1/kg body weight per day ip
[11] = liver, dose Mid: 1.38 μmol FB1/kg body weight per day ip

Compound: CCCC[C@@H](C)[C@@H](O)[C@@H](O)C[C@@H](C)C[C@H](O)CCCC[C@@H](O)C[C@H](O)[C@H](C)N [HFB1, Hydrolyzed fumonisin B1, reference compound]
- levels of sphingoid bases and 1-phosphates (total sphingosine, total sphinganine) in tissues compared to vehicle-treated controls (sphingolipid metabolism; kidney and liver): did not cause any significant changes
- Sa/So ratio (sphingolipid metabolism; [6]): 0.3 ± 0.0
- sphinganine (Sa) (sphingolipid metabolism; [6]): 3 ± 0.7 nmol/g
- sphinganine-1-phosphate (Sa1P) (sphingolipid metabolism; [6]): 0.6 ± 0.4 nmol/g
- sphingosine (So) (sphingolipid metabolism; [6]): 9 ± 2.8 nmol/g
- sphingosine-1-phospate (So1P) (sphingolipid metabolism; [6]): 0.4 ± 0.1 nmol/g
- Sa/So ratio (sphingolipid metabolism; [7]): 0.5 ± 0.4
- sphinganine (Sa) (sphingolipid metabolism; [7]): 2 ± 1 nmol/g
- sphinganine-1-phosphate (Sa1P) (sphingolipid metabolism; [7]): 0.1 ± 0.1 nmol/g
- sphingosine (So) (sphingolipid metabolism; [7]): 3 ± 0.2 nmol/g
- sphingosine-1-phospate (So1P) (sphingolipid metabolism; [7]): 0.2 ± 0.0 nmol/g
- microscopic appearance of kidney and liver (rat liver and kidney): could not be differentiated from that of tissues from the vehicle control group
- metabolites of the dosed mycotoxin found in the kidney [1]: less than 0.5 nmol/g
- HFB1 molar concentration in the liver relative to the kidney [2]: about sixfold higher
- HFB1 molar concentration in tissue ([2]; kidney): 0.27 nmol/g
- unmetabolized HFB1 accumulated in tissue, % of the total dose (TD) ([2]; kidney): < 0.1 % TD
- total amount of HFB1 species in tissue, % of the total dose (TD) ([2]; kidney, HFB1 plus N-acyl metabolites): 0.03 % TD
- HFB1 molar concentration in tissue ([2]; liver): 1.78 nmol/g
- unmetabolized HFB1 accumulated in tissue, % of the total dose (TD) ([2]; liver): 0.7 % TD

Compound: CCCC[C@@H](C)[C@@H](OC(=O)C[C@@H](CC(=O)O)C(=O)O)[C@H](C[C@@H](C)C[C@H](O)CCCC[C@@H](O)C[C@H](O)[C@H](C)N)OC(=O)C[C@@H](CC(=O)O)C(=O)O [FB1, Fumonisin B1]
- tissue ceramide concentrations (sphingolipid metabolism; kidney and liver, FB1 ip): decreased in both tissues
- levels of sphingoid bases and 1-phosphates (total sphingosine, total sphinganine) in tissues compared to vehicle-treated controls (sphingolipid metabolism; kidney and liver): increased amounts
- Sa/So ratio (sphingolipid metabolism; [6]): 3.8 ± 1.8
- sphinganine (Sa) (sphingolipid metabolism; [6]): 207 ± 79.9 nmol/g
- sphinganine-1-phosphate (Sa1P) (sphingolipid metabolism; [6]): 19.9 ± 1.0 nmol/g
- sphingosine (So) (sphingolipid metabolism; [6]): 56 ± 6.2 nmol/g
- sphingosine-1-phospate (So1P) (sphingolipid metabolism; [6]): 21.6 ± 4.5 nmol/g
- Sa/So ratio (sphingolipid metabolism; [8]): 4.1 ± 1.0
- sphinganine (Sa) (sphingolipid metabolism; [8]): 252 ± 15.6 nmol/g
- sphinganine-1-phosphate (Sa1P) (sphingolipid metabolism; [8]): 16.7 ± 0.5 nmol/g
- sphingosine (So) (sphingolipid metabolism; [8]): 63 ± 11.5 nmol/g
- sphingosine-1-phospate (So1P) (sphingolipid metabolism; [8]): 21.4 ± 4.1 nmol/g
- Sa/So ratio (sphingolipid metabolism; [9]): 2.5 ± 0.2
- sphinganine (Sa) (sphingolipid metabolism; [9]): 146 ± 11.3 nmol/g
- sphinganine-1-phosphate (Sa1P) (sphingolipid metabolism; [9]): 11.3 ± 1.5 nmol/g
- sphingosine (So) (sphingolipid metabolism; [9]): 59 ± 8.3 nmol/g
- sphingosine-1-phospate (So1P) (sphingolipid metabolism; [9]): 20.8 ± 0.7 nmol/g
- Sa/So ratio (sphingolipid metabolism; [7]): 5.9 ± 0.0
- sphinganine (Sa) (sphingolipid metabolism; [7]): 81 ± 17.1 nmol/g
- sphinganine-1-phosphate (Sa1P) (sphingolipid metabolism; [7]): 0.9 ± 0.5 nmol/g
- sphingosine (So) (sphingolipid metabolism; [7]): 14 ± 2.9 nmol/g
- sphingosine-1-phospate (So1P) (sphingolipid metabolism; [7]): 1.0 ± 0.3 nmol/g
- Sa/So ratio (sphingolipid metabolism; [10]): 4.2 ± 0.9
- sphinganine (Sa) (sphingolipid metabolism; [10]): 68 ± 27.6 nmol/g
- sphinganine-1-phosphate (Sa1P) (sphingolipid metabolism; [10]): 0.2 ± 0.2 nmol/g
- sphingosine (So) (sphingolipid metabolism; [10]): 16 ± 3.3 nmol/g
- sphingosine-1-phospate (So1P) (sphingolipid metabolism; [10]): 0.4 ± 0.2 nmol/g
- Sa/So ratio (sphingolipid metabolism; [11]): 5.5 ± 1.2
- sphinganine (Sa) (sphingolipid metabolism; [11]): 88 ± 15.1 nmol/g
- sphinganine-1-phosphate (Sa1P) (sphingolipid metabolism; [11]): 0.4 ± 0.1 nmol/g
- sphingosine (So) (sphingolipid metabolism; [11]): 17 ± 6.4 nmol/g
- sphingosine-1-phospate (So1P) (sphingolipid metabolism; [11]): 0.8 ± 0.0 nmol/g
- absorption after oral exposure [3]: < 5 % of dose
- microscopic appearance of kidney and liver (rat liver and kidney): Mild to moderate apoptotic, mitotic, and other effects consistent with fumonisin exposure
- AUCtissue/AUCplasma ratio ([4]; kidney): 29.9
- AUCtissue/AUCplasma ratio ([4]; liver): 2.03
- metabolites of the dosed mycotoxin found in the kidney [1]: less than 0.5 nmol/g
- FB1 concentration (ng/g wet weight) in the kidney relative to the liver [5]: approximately tenfold higher

Reference: publication PMC4298654, “In vivo formation of N-acyl-fumonisin B1” (Mycotoxin Research, 2014)
